One data set concerns mammals. Nature of the data set: general statement on heart rate at effective antihypertensive doses. Format: in vivo. Particulars: for change in heart rate: at effective antihypertensive or hypotensive doses.
Data set [1] concerns Spontaneous Hypertensive Rat. Nature of the data set: lowering of blood pressure and heart rate in the spontaneously hypertensive rat (SHR). Format: in vivo. Particulars: for ED (40 mm Hg) / ED (10%): Rattus norvegicus, 4 h; for ED (40 mm Hg): read-out: Dose which lowers blood pressure by 40 mm Hg; for ED (10%): read-out: Dose which lowers heart rate by 10%; for reduction of heart rate / reduction of systolic blood pressure: doses of 50-200 mg./kg., 4 hours (FIG. 1, FIG. 2). The procedure: FIG. 1 constitutes a dose-response graph of blood pressure and heart rate changes determined in the spontaneous hypertensive rat 4 hours after orally administered 4'-[1-hydroxy-2-[(1 -phenoxyethyl)amino]ethyl]methanesulfonanilide (Compound A). Blood pressure changes at doses of 50, 100, and 200 mg./kg. body weight are given in millimeters of mercury and are represented by circles (-0 -) with percent change in heart rate represented by squares (- -).
FIG. 2 constitutes a dose-response graph of blood pressure and heart rate changes similar to that of FIG. 1 for 4-[2-( 1-phenoxy-2-propylamino)-1-hydroxyethyl]methanesulfonanilide (Compound B).
Another in vivo animal experiment considered predictive of antihypertensive utility by those skilled in the art is the lowering of blood pressure in an inbred strain of spontaneously hypertensive rat (SHR) established by Okamoto and Aoki. In this test, systolic blood pressure and heart rate determinations are made immediately before the animals are orally dosed to provide control values and subsequently thereafter at 4 and 24-hour periods to determine drug effect. Various doses of test drug are administered and a dose-response graph obtained by plotting (on semi-log paper) the observed change (mm Hg) in systolic blood pressure and percent change in heart rate as […]. […] Values set forth in Table II below are taken from FIGS. 1 and 2.

The next data set deals with beta-receptor. Particulars: isolated guinea pig tracheal spiral; Uloth et al., J. Med. Chem. 9, 88-97 (1966); cited from earlier work.
Data set [2] concerns Anesthetized Dog Challenged with Isoproterenol. Nature of the data set: inherent cardiac and blood pressure effects in the isoproterenol challenged intact anesthetized dog. It counts as in vivo. Particulars: for Absolute Change From Control in Contractile Force (CF) / Absolute Change From Control in Heart Rate (HR) / Absolute Change From Control in Mean Arterial Blood Pressure (MABP): decrease. The procedure: One such test involves the measurement of inherent cardiac and blood pressure effects in the isoproterenol challenged intact anesthetized dog. In this test model, dogs are anesthetized with a mixture of phenobarbital sodium (15 mg./kg.) and barbital sodium (225 mg./kg.) intravenously and are vagotomized bilaterally. Heart rate, contractile force and diastolic blood pressure are continuously recorded with alterations in these responses (e.g. tachycardia) produced by intravenously administered isoproterenol determined before and after injection of increasing doses of the test compound. The test substance is administered to separate groups of dogs at cumulative doses of 0.1, 0.3, 1, 3, and 10 mg./kg. body weight with each dose of the test substance infused slowly over a period of 3-5 minutes. After completing infusion of the test substance, a 10 -minute equilibrium period is allowed for drug-receptor interaction and stabilization of the cardiovascular system before a series of isoproterenol challenges is initiated. Maximum response to isoproterenol is achieved after each dose of the beta-adrenergic blocking agent by logarithmically increasing the dose of this agonist as receptor blockade develops. Each dose of isoproterenol is given approximately 5 minutes after the previous one and the overall dose range for isoproterenol is from 0.03-300 micrograms per kilogram body weight. Mean changes in the resting levels of the cardiovascular variables (heart rate, contractile force, and mean arterial blood pressure) due to the administration of each agent (which is taken as a measure of the inherent drug effect) is determined and statistically compared using the Student's test.

The nature of data set [3]: acute toxicity in mice (LD50). The following applies: mouse, in vivo, hydrochloride.
A short description of data set [4]: acute toxicity in rats (oral LD50). The following applies: rat, in vivo, hydrochloride.
[5] abbreviates: 0.3 mg/kg i.v., + = increase from control (footnote c).

Entries after “also recorded” stand apart in the source; their conditions may differ.

As for `CC(COc1ccccc1)NCC(O)c1ccc(NS(C)(=O)=O)cc1` (stereo not drawn) [Compound B, 4-[2-(1-phenoxy-2-propylamino)-1-hydroxyethyl]methanesulfonanilide, reference compound], in the data set with mammals, the “change in heart rate” value is reported as “substantial decrease in heart rate”. Further, in data set [1] (oral, taken from FIGS. 1 and 2), the ED (40 mm Hg) is 100 mg/kg, the ED (10%) is 18 mg/kg, the “Percent decrease in heart rate at dose lowering blood pressure by 40 mm Hg” value came to 21% and the “decrease in blood pressure at dose lowering heart rate by 10% (in words)” value was “no significant; also recorded: no effect on blood pressure”. In data set [1] (oral), the “reduction of heart rate” value was 17-25% and the “reduction of systolic blood pressure” value is 18-64 mm Hg. Further, in the data set with beta-receptor, the “beta-receptor blocking activity relative to dichloroisoproterenol” value was “four times the activity of dichloroisoproterenol”. For the same compound, in data set [2] (0.3 mg/kg i.v.), the “Absolute Change From Control in Contractile Force (CF)” value (from here on “Absolute Change From Control … (CF)”) turned out to be 6 ± 7 gm and the “Absolute Change From Control in Heart Rate (HR)” value worked out at 29 bpm. The “Absolute Change From Control in Mean Arterial Blood Pressure (MABP)” value (from here on “Absolute Change From Control … (MABP)”) in data set [2] (setting [5]) is “+1 ± 5 mm Hg”. In data set [2] (1.0 mg/kg i.v.), the “Absolute Change From Control … (CF)” value worked out at 4 ± 7 gm, the “Absolute Change From Control in Heart Rate (HR)” value is reported as 39 ± 7 bpm and the “Absolute Change From Control … (MABP)” value amounted to 2 ± 6 mm Hg. In data set [2] (3.0 mg/kg i.v.), the “Absolute Change From Control … (CF)” value came out at 4 ± 7 gm, the “Absolute Change From Control in Heart Rate (HR)” value is on record as 54 ± 7 bpm and the “Absolute Change From Control … (MABP)” value is listed as 10 ± 8 mm Hg. In data set [2] (10.0 mg/kg i.v.), the “Absolute Change From Control … (CF)” value is reported as 6 ± 9 gm, the “Absolute Change From Control in Heart Rate (HR)” value worked out at 72 ± 9 bpm and the “Absolute Change From Control … (MABP)” value is recorded as 28 ± 14 mm Hg. For the same compound, the “reduction in heart rate” value in data set [2] (dose of 3 mg./kg.) amounted to 33%. In data set [2] (doses of 0.3 to 1.0 mg./kg.), the “effect on heart rate (bradycardia)” value is on record as “pronounced bradycardia” and the “effect on mean arterial blood pressure” value was “no significant effect”.
By LD50 is commonly meant the dose expected to kill half of the subjects tested. Regarding `CS(=O)(=O)Nc1ccc(C(O)CNCCOc2ccccc2)cc1.Cl` (stereo not drawn) [4'-[1-Hydroxy-2-[(2-phenoxyethyl)amino]ethyl]methanesulfonanilide Hydrochloride], the 50% lethal dose (LD50) in data set [3] (ip, intraperitoneal, read-out: intraperitoneal LD50) was found to be 273 mg/kg; in data set [3] (oral, read-out: oral LD50) it was 1920 mg/kg; in data set [4] (female rat), 1950 mg/kg; in data set [4] (male rat) it was 3550 mg/kg.
Take `CS(=O)(=O)Nc1ccc(C(O)CNCCOc2ccccc2)cc1` (stereo not drawn) [Compound A, 4'-[1-hydroxy-2-[(2-phenoxyethyl)amino]ethyl]methanesulfonanilide]: the “change in heart rate” value with mammals is given as “little or no effect on heart rate”; in the data set on mammals (listed as compound of the instant invention), “little or no significant change in heart rate”. Further, the “effect on blood pressure” value with mammals (effective dose) is given as “reduces blood pressure”. Besides, the ED (40 mm Hg) in data set [1] (oral, taken from FIGS. 1 and 2) stood at 165 mg/kg. Further, in data set [1] (oral, taken from FIGS. 1 and 2), the ED (10%) is 150 mg/kg. For the same compound, the “bradycardia liability relative to Compound B” value in data set [1] (at doses sufficient to reduce blood pressure by 40 mm Hg) is “about 50%”. Moreover, the “reduction of heart rate” value in data set [1] (oral) is 2-12%. Moreover, the “reduction of systolic blood pressure” value in data set [1] (oral) is 22-43 mm Hg. Also, the “Percent decrease in blood pressure at dose lowering heart rate by 10%” value in data set [1] (oral, taken from FIGS. 1 and 2) is listed as 38%. For the same compound, the “Percent decrease in heart rate at dose lowering blood pressure by 40 mm Hg” value in data set [1] (oral, taken from FIGS. 1 and 2) is 11%. Further, the “Absolute Change From Control … (CF)” value came to 9 ± 6 gm in data set [2] (0.1 mg/kg i.v.); 8 ± 6 gm in data set [2] (0.3 mg/kg i.v.); 11 ± 5 gm in data set [2] (1.0 mg/kg i.v.); 11 ± 5 gm in data set [2] (3.0 mg/kg i.v.); 17 ± 7 gm in data set [2] (10.0 mg/kg i.v.). The “Absolute Change From Control in Heart Rate (HR)” value in data set [2] (0.1 mg/kg i.v.) was 18 ± 4 bpm; in data set [2] (0.3 mg/kg i.v.) it was 22 ± 4 bpm; in data set [2] (1.0 mg/kg i.v.) it was 32 ± 5 bpm; in data set [2] (3.0 mg/kg i.v.), 38 ± 6 bpm; in data set [2] (10.0 mg/kg i.v.), 38 ± 6 bpm. The “Absolute Change From Control … (MABP)” value stood at 11 ± 1 mm Hg in data set [2] (0.1 mg/kg i.v.); 17 ± 3 mm Hg in data set [2] (setting [5]); 12 ± 3 mm Hg in data set [2] (1.0 mg/kg i.v.); 16 ± 4 mm Hg in data set [2] (3.0 mg/kg i.v.); 34 ± 7 mm Hg in data set [2] (10.0 mg/kg i.v.). Also, in data set [2] (dose of 0.1 mg./kg.), the “reduction in heart rate” value turned out to be 12%. In data set [2] (doses of 0.3 to 1.0 mg./kg.), the “effect on mean arterial blood pressure” value is recorded as “effectively reduces mean arterial blood pressure”.

Values taken from patent US4044150A, “Antihypertensive 4'-[1-hydroxy-2-[(1-phenoxy ethyl)-amino]ethyl]methanesulfonanilide and salts thereof and therapeutic use” (Mead Johnson & Company, priority 1976, dated 1977).
